Target: EZH2 (Homo sapiens (Human), UniProt Q15910)
Assay: PRC2 enzyme assay on peptide substrates
Format: biochemical
Settings: PRC2 enzyme assays on peptide substrates; 4 nM enzyme, 30 min preincubation at 25° C.; read-out: EZH2 IC50
From the text: General Materials. S-adenosylmethionine (SAM), S-adenosylhomocyteine (SAH), bicine, KCl, Tween20, dimethylsulfoxide (DMSO) and bovine skin gelatin (BSG) were purchased from Sigma-Aldrich at the highest level of purity possible. Dithiothreitol (DTT) was purchased from EMD. ^3H-SAM was purchased from American Radiolabeled Chemicals with a specific activity of 80 Ci/mmol. 384-well streptavidin Flashplates were purchased from PerkinElmer.
Substrates. […] The sequences are listed below.
Recombinant PRC2 Enzymes. Human PRC2 enzymes were purified as 4-component enzyme complexes co-expressed in Spodoptera frugiperda (sf9) cells using a baculovirus expression system. The subunits expressed were wild-type EZH2 (NM_004456) or EZH2 Y641F, N, H, S or C mutants generated from the wild-type EZH2 construct, EED (NM_003797), Suz12 (NM_015355) and RbAp48 (NM_005610). The EED subunit contained an N-terminal FLAG tag that was used to purify the entire 4-component complex from sf9 cell lysates.
General Procedure for PRC2 Enzyme Assays on Peptide Substrates. The assays were all performed in a buffer consisting of 20 mM bicine (pH=7.6), 0.5 mM DTT, 0.005% BSG and 0.002% Tween20, prepared on the day of use. […] DMSO (1 μL) was added to columns 11, 12, 23, 24, rows A-H for the maximum signal control, and SAH, a known product and inhibitor of PRC2 (1 μL) was added to columns 11, 12, 23, 24, rows I-P for the minimum signal control. A cocktail (40 μL) containing the wild-type PRC2 enzyme and H3K27me0 peptide or any of the Y641 mutant enzymes and H3K27me2 peptide was added by Multidrop Combi (Thermo). The compounds were allowed to incubate with PRC2 for 30 min at 25° C., then a cocktail (10 μL) containing a mixture of non-radioactive and ^3H-SAM was added to initiate the reaction (final volume=51 μL). […] The assays were stopped by the addition of non-radioactive SAM (10 μL) to a final concentration of 600 μM, which dilutes the ^3H-SAM to a level where its incorporation into the peptide substrate is no longer detectable. 50 μL of the reaction in the 384-well polypropylene plate was then transferred to a 384-well Flashplate and the biotinylated peptides were allowed to bind to the streptavidin surface for at least 1 h before being washed three times with 0.1% Tween20 in a Biotek ELx405 plate washer. The plates were then read in a PerkinElmer TopCount platereader to measure the quantity of ^3H-labeled peptide bound to the Flashplate surface, measured as disintegrations per minute (dpm) or alternatively, referred to as counts per minute (cpm).
Where dpm=disintegrations per minute, cmpd=signal in assay well, and min and max are the respective minimum and maximum signal controls.
Where top and bottom are the normally allowed to float, but may be fixed at 100 or 0 respectively in a 3-parameter fit. The Hill Coefficient normally allowed to float but may also be fixed at 1 in a 3-parameter fit. Y is the % inhibition and X is the compound concentration.

Chain of EZH2 (Q15910 other isoform, or with tags, fused parts or gaps): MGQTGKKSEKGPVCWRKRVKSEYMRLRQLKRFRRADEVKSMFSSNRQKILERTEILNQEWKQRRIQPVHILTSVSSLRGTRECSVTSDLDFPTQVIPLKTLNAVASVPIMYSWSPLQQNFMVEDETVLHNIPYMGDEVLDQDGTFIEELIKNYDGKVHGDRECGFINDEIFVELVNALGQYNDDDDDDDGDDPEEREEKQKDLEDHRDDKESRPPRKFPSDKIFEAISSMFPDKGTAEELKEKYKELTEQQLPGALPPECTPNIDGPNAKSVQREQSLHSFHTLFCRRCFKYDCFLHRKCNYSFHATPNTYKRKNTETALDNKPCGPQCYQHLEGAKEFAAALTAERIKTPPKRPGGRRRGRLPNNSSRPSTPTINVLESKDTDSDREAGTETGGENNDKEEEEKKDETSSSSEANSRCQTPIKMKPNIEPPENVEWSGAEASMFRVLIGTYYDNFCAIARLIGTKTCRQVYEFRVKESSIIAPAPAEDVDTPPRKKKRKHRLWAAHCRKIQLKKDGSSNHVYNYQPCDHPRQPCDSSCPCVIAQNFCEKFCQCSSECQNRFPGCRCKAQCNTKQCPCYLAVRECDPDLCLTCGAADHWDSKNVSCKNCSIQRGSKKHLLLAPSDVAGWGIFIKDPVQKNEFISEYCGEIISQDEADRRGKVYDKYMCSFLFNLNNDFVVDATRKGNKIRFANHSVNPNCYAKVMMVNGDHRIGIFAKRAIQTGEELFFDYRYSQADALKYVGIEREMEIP
Chain of EZH2 (O75530 whole entry partner): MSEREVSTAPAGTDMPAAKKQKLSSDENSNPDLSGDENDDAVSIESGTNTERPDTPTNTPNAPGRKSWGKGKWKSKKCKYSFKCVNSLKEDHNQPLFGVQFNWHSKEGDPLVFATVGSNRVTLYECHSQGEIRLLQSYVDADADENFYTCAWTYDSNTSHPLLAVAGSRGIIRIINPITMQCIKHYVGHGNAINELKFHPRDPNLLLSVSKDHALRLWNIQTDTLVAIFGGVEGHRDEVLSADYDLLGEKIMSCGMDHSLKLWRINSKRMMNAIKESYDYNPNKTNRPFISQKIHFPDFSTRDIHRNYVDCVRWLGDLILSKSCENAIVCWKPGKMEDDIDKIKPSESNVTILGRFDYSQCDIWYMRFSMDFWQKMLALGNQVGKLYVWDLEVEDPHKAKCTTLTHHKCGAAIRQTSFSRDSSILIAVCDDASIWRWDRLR
Chain of EZH2 (Q15022 whole entry partner): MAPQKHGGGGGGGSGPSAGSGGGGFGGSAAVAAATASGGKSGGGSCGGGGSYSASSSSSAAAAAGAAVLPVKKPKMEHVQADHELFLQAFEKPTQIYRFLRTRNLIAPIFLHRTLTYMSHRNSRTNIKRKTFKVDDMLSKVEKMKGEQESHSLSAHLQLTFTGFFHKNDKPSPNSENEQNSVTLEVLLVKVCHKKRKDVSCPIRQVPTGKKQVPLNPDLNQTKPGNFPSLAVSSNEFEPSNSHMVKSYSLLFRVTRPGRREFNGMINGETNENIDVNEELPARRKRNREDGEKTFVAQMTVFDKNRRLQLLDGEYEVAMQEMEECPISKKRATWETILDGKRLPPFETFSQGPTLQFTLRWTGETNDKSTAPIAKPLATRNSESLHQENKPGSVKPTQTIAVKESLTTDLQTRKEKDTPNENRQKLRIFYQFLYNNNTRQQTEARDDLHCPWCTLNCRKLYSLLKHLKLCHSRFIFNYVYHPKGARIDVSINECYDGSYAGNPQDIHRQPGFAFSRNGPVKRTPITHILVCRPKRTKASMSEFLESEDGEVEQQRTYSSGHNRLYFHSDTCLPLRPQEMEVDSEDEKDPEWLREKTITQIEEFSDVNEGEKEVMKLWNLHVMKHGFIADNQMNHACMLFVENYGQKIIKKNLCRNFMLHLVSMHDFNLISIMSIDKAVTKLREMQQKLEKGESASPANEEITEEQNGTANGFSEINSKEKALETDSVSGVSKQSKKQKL
Chain of EZH2 (Q09028 whole entry partner): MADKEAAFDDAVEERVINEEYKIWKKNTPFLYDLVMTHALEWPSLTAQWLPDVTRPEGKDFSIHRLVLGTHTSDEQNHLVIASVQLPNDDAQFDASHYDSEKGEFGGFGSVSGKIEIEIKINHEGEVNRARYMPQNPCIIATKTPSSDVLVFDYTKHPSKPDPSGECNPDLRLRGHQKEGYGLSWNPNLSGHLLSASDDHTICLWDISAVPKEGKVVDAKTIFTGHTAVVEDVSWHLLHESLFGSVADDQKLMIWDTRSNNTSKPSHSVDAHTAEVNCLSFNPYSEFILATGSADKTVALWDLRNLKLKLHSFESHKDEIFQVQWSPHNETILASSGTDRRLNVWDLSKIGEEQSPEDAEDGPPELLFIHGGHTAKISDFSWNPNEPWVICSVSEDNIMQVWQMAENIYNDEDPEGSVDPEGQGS

Row | SMILES | IC50 [nM]
1 | Cc1cc(C)c(CNC(=O)c2cc(NCCS(C)(=O)=O)nc3c2cnn3C(C)C)c(=O)[nH]1 [Compound B-114] | 1000 to 3000
2 | Cc1cc(C)c(CNC(=O)c2cc(N(C)CC(O)CO)nc3c2cnn3C(C)C)c(=O)[nH]1 (stereo not drawn) [Compound B-134] | 3000 to 10000
3 | Cc1cc(C)c(CNC(=O)c2cc(-c3ccc(C(=O)O)cc3)nc3c2cnn3C(C)C)c(=O)[nH]1 [Compound A-53] | 1000 to 3000
4 | Cc1cc(C)c(CNC(=O)c2cc(C3=CCN(C(=O)[C@H](C)N)CC3)nc3c2cnn3C(C)C)c(=O)[nH]1 [Compound B-46] | 300 to 1000
5 | CC(=O)N1CCC(c2cc(C(=O)NCc3c(C)cc(C)[nH]c3=O)c3cnn(C(C)C)c3n2)CC1 [Compound B-78] | 300 to 1000
6 | Cc1cc(C)c(CNC(=O)c2cc(N3CCC(C4CCN(C)CC4)CC3)nc3c2cnn3C(C)C)c(=O)[nH]1 [Compound B-94] | 1000 to 3000
7 | Cc1cc(C)c(CNC(=O)c2cc(-c3cccc(CNCCN4CCOCC4)c3)nc3c2cnn3C(C)C)c(=O)[nH]1 [Compound A-126] | 300 to 1000
8 | Cc1cc(CN2CCCC2)c(CNC(=O)c2cccc3c2cnn3C2CCCC2)c(=O)[nH]1 [Compound D-82] | 3000 to 10000
9 | C=CCn1ncc2c(C(=O)NCc3c(C)cc(C)[nH]c3=O)cc(C3=CC(C)(C)NC(C)(C)C3)nc21 [Compound B-155] | 10000 to 50000
10 | Cc1cc(C)c(CNC(=O)c2cc(C3CC(C)(C)NC(C)(C)C3)cc3c2cnn3C2CCCC2)c(=O)[nH]1 [Compound D-3, 1-cyclopentyl-N-((4,6-dimethyl-2-oxo-1,2-dihydropyridin-3-yl)methyl)-6-(2,2,6,6-tetramethylpiperidin-4-yl)-1H-indazole-4-carboxamide] | < 300
11 | Cc1cc(C)c(CNC(=O)c2cc(-c3ccc(CN4CCOCC4)cc3)cc3c2cnn3C(C)C)c(=O)[nH]1 [Compound C-5, N-((4,6-dimethyl-2-oxo-1,2-dihydropyridin-3-yl)methyl)-1-isopropyl-6-(4-(morpholinomethyl)phenyl)-1H-indazole-4-carboxamide] | < 300
12 | Cc1cc(C)c(CNC(=O)c2cc(N3CCN(C)CC3)nc3c2cnn3C(C)C)c(=O)[nH]1 [Compound B-9, N-((4,6-dimethyl-2-oxo-1,2-dihydropyridin-3-yl)methyl)-1-isopropyl-6-(4-methylpiperazin-1-yl)-1H-pyrazolo[3,4-b]pyridine-4-carboxamide] | 1000 to 3000
13 | Cc1cc(C)c(CNC(=O)c2cc(COCCO)cc3c2cnn3C2CCCC2)c(=O)[nH]1 [Compound D-68] | 300 to 1000
14 | Cc1cc(C)c(CNC(=O)c2cc(N3CCC(N4CCN(CCS(C)(=O)=O)CC4)CC3)nc3c2cnn3C(C)C)c(=O)[nH]1 [Compound B-102] | 1000 to 3000
15 | Cc1cc(C)c(CNC(=O)c2cc(-c3ccc(N4CCN(C(=O)OC(C)(C)C)CC4)nc3)nc3c2cnn3C(C)C)c(=O)[nH]1 [Compound A-44] | 300 to 1000
16 | CC(C)n1ncc2c(C(=O)NCc3cc4c([nH]c3=O)CCNC4)cc(-c3ccc4c(c3)OCCO4)nc21 [Compound A-71] | 10000 to 50000
17 | Cc1cc(C)c(CNC(=O)c2cc(C3=CCN(C(=O)CO)CC3)nc3c2cnn3C(C)C)c(=O)[nH]1 [Compound B-82] | 300 to 1000
18 | Cc1cc(C)c(CNC(=O)c2cc(Br)cc3c2cnn3C2CCN(Cc3ccccc3)CC2)c(=O)[nH]1 [Compound D-15, 1-(1-benzylpiperidin-4-yl)-6-bromo-N-((4,6-dimethyl-2-oxo-1,2-dihydropyridin-3-yl)methyl)-1H-indazole-4-carboxamide] | 300 to 1000
19 | Cc1cc(C)c(CNC(=O)c2cc(-c3cccc(CO)c3)cc3c2cnn3C2CCCC2)c(=O)[nH]1 [Compound C-8, 1-cyclopentyl-N-((4,6-dimethyl-2-oxo-1,2-dihydropyridine-3-yl)methyl)-6-(3-(hydroxymethyl)phenyl)-1H-indazole-4-carboxamide] | 300 to 1000
20 | Cc1cc(C)c(CNC(=O)c2cc(-c3ccc(CN(C)C)cc3)cc3c2cnn3C2CCN(C(=O)C(C)(C)C)CC2)c(=O)[nH]1 [Compound C-31] | < 300
21 | Cc1cc(C)c(CNC(=O)c2cc(C3=CCN(C(=O)C4CN(C)C4)CC3)cc3c2cnn3C2CCCC2)c(=O)[nH]1 [Compound D-50] | < 300

Row | SMILES | IC50 [nM]
22 | Cc1cc(C)c(CN(C)C(=O)c2cc(-c3cccc(CN4CCN(C)CC4)c3)nc3c2cnn3C(C)C)c(=O)[nH]1 [Compound A-73] | 10000 to 50000
23 | Cc1cc(C)c(CNC(=O)c2cc(N3CCC(N(C)C)CC3)nc3c2cnn3C(C)C)c(=O)[nH]1 [Compound B-86] | 1000 to 3000
24 | Cc1cc(C)c(CNC(=O)c2cc(C3=CC(C)(C)NC(C)(C)C3)nc3c2cnn3Cc2ccccc2)c(=O)[nH]1 [Compound B-151] | 10000 to 50000
25 | Cc1cc(C)c(CNC(=O)c2cc(CN3CCN(C)CC3)cc3c2cnn3C2CCCC2)c(=O)[nH]1 [Compound D-7] | < 300
26 | CNCC(=O)N1CC=C(c2cc(C(=O)NCc3c(C)cc(C)[nH]c3=O)c3cnn(C(C)C)c3n2)CC1 [Compound B-39] | 300 to 1000
27 | Cc1cc(C)c(CNC(=O)c2cc(Br)cc3c2cnn3C2CCN(C(=O)C(C)C)CC2)c(=O)[nH]1 [Compound D-42] | < 300
28 | CNCCCOc1ccc(-c2cc(C(=O)NCc3c(C)cc(C)[nH]c3=O)c3cnn(C4CCCC4)c3c2)cc1 [Compound C-12, 1-cyclopentyl-N-((4,6-dimethyl-2-oxo-1,2-dihydropyridin-3-yl)methyl)-6-(4-(3-(methylamino)propoxy)phenyl)-1H-indazole-4-carboxamide] | < 300
29 | C=C(C)c1nn(C(C)C)c2nc(-c3ccc(CN4CCOCC4)cc3)cc(C(=O)NCc3c(C)cc(C)[nH]c3=O)c12 [Compound A-94] | 3000 to 10000
30 | Cc1cc(C)c(CNC(=O)c2cc(-c3cccnc3N3CCN(C(=O)OC(C)(C)C)CC3)nc3c2cnn3C(C)C)c(=O)[nH]1 [Compound A-95] | 3000 to 10000
31 | CNCC(=O)N1CCC(c2cc(C(=O)NCc3c(C)cc(C)[nH]c3=O)c3cnn(C(C)C)c3n2)CC1 [Compound B-76] | 300 to 1000
32 | Cc1cc(C)c(CNC(=O)c2cc(-c3ccnc(N4CCN(C(=O)OC(C)(C)C)CC4)c3)nc3c2cnn3C(C)C)c(=O)[nH]1 [Compound A-27] | 300 to 1000
33 | Cc1cc(C)c(CNC(=O)c2cc(C3CCN(C(=O)[C@@H](N)CO)CC3)nc3c2cnn3C(C)C)c(=O)[nH]1 [Compound B-100] | 1000 to 3000
34 | CC(=O)N1CC=C(c2cc(C(=O)NCc3c(C)cc(C)[nH]c3=O)c3cnn(C(C)C)c3n2)CC1 [Compound B-64] | 300 to 1000
35 | CC(=O)N1CC=C(c2cc(C(=O)NCc3c(C)cc(C)[nH]c3=O)c3cnn(C4CCCC4)c3c2)CC1 [Compound D-4, 6-(1-acetyl-1,2,3,6-tetrahydropyridin-4-yl)-1-cyclopentyl-N-((4,6-dimethyl-2-oxo-1,2-dihydropyridin-3-yl)methyl)-1H-indazole-4-carboxamide] | < 300
36 | Cc1cc(C)c(CNC(=O)c2cc(C3=CCN(CCN)CC3)cc3c2cnn3C2CCCC2)c(=O)[nH]1 [Compound D-49] | < 300
37 | Cc1cc(C)c(CNC(=O)c2cc(-c3ccc(CN4CCOCC4)cc3)nc3c2cnn3C2CCCC2)c(=O)[nH]1 [Compound A-1, 1-cyclopentyl-N-((4,6-dimethyl-2-oxo-1,2-dihydropyridin-3-yl)methyl)-6-(4-(morpholinomethyl)phenyl)-1H-pyrazolo[3,4-b]pyridine-4-carboxamide] | < 300
38 | Cc1cc(C)c(CNC(=O)c2cc(N3CCCC3)nc3c2cnn3C(C)C)c(=O)[nH]1 [Compound B-123] | 3000 to 10000
39 | Cc1cc(C)c(CNC(=O)c2cccc3c2ccn3C(C)C)c(=O)[nH]1 [Compound E-1] | 1000 to 3000
40 | Cc1cc(C)c(CNC(=O)c2cc(C3=CC(C)(C)NC(C)(C)C3)nc3c2cnn3C2CCN(C)CC2)c(=O)[nH]1 [Compound B-116] | 1000 to 3000
41 | Cc1cc(C)c(CNC(=O)c2cc(C3=CCN(C(=O)C4CCNCC4)CC3)nc3c2cnn3C(C)C)c(=O)[nH]1 [Compound B-20, N-((4,6-dimethyl-2-oxo-1,2-dihydropyridin-3-yl)methyl)-1-isopropyl-6-(1-(piperidine-4-carbonyl)-1,2,3,6-tetrahydropyridin-4-yl)-1H-pyrazolo[3,4-b]pyridine-4-carboxamide] | < 300
42 | Cc1cc(CN2CCNC(=O)C2)c(CNC(=O)c2cc(Br)cc3c2cnn3C2CCCC2)c(=O)[nH]1 [Compound D-69] | 1000 to 3000

Reference: patent publication US9637472B2, “Substituted 6,5-fused bicyclic heteroaryl compounds” (Epizyme, Inc., priority 2011, dated 2017)
